The source of these data is PubChem BioAssay (NCI).

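Interpolation was linear, between the two tested concentrations surrounding the appropriate level; five concentrations were tested over 48 hours in 96-well plates. GI50 = concentration required for 50% inhibition of growth. TGI: concentration producing complete growth inhibition.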 Where only a bound is given, the exact number is not on record here.

What all share (experiment): NCI anticancer screen, dose series, 48 h
Test [1] relates to A498 renal.
For test [2], the system named is SF-268 CNS.
The subject of test [3] is MOLT-4 leukemia.
Test [4] deals with SW-620 colon.
Test [5] deals with SNB-19 CNS.
The test system of test [6] is SF-539 CNS.
Test [7] has as its system COLO 205 colon.
Test [8] relates to SN12C renal.
The subject of test [9] is LOX IMVI melanoma.

Consider `CCP(C)(C)=O`, for which the TGI in [1], in test [2], in test [3], in [4], in test [5] and in [6] was over 100 µM each time. Further, the TGI in [7], in test [8] and in [9] was over 100 µM each time.

For the compound `CN(C)CCC(/C=C/c1ccccc1)=N\Nc1ccc(Cl)cc1`, the TGI stood at 21.8 µM in [1]; 6.56 µM in test [2]; 5.43 µM in test [3]; 14.7 µM in [4]; 27.5 µM in test [5]; 5.32 µM in [6]. Also, the TGI in test [7] came out at 16.5 µM; in test [8] it was 7.03 µM; in test [9], 3.57 µM.

Turning to `Cc1cc(Cl)cc2c1NC(=O)C2(O)CC(=O)c1ccc(F)cc1` (stereo unspecified), the TGI in [2], in test [4], in test [5], in test [6], in test [7] and in [8] was over 100 µM throughout. In test [9], this compound showed a TGI of over 100 µM.

On to `Cc1cccc(Cl)c1NC(=O)c1cccc([N+](=O)[O-])c1O`, for which the TGI in [1] is over 100 µM; in test [2] it was 96.5 µM; in [3], over 100 µM; in test [4], over 100 µM; in test [5], over 100 µM; in test [6], 85.2 µM. Also, the TGI was over 100 µM in test [7], over 100 µM in [8] and 82.9 µM in test [9].

Regarding `COc1cc(/C=C2\NC(=S)C3Cc4c(OC)c(C)c(OC)c(OC)c4C2N3C)c(OC)c(C)c1OC` (stereo unspecified), the TGI in test [1], in test [2], in [3], in test [4], in test [5] and in [6] was over 100 µM each time. Moreover, the TGI in test [7] is 35.2 µM; in test [8], over 100 µM; in test [9], over 100 µM.

With `CC1NCCc2c1[nH]c1cc(O)ccc21` (stereo unspecified), the TGI in test [1], in [2], in [3], in test [4], in test [5] and in [6] was over 100 µM each time. Moreover, the TGI in test [7], in [8] and in [9] was over 100 µM throughout.

For the compound `C/C=C/C=C/CCCCCCCCCCCCC[C@]1(OC)C=CC(CC(=O)OC)OO1` (stereo partly specified), the TGI was 46.4 µM in [2]; 48.7 µM in test [3]; 33 µM in test [4]; 35.3 µM in test [6]; 36.1 µM in test [7]; 48 µM in test [8]. In test [9], the TGI was found to be 37.1 µM. The GI50 was 19.9 µM in test [3], 16.7 µM in test [4], 18.9 µM in test [7] and 19.3 µM in [9].

Consider `NC1=NCC(c2ccccn2)C1c1ccc(F)cc1` (stereo unspecified), for which the TGI in test [1], in [2], in test [3], in test [4], in test [5] and in test [6] was over 100 µM throughout. Besides, the TGI in [7], in [8] and in test [9] was over 100 µM throughout.

In the case of `CC1(C)Cc2nnsc2C2=C1C(=O)CCS2`, the TGI in test [2], in test [3], in [4], in test [5], in test [6] and in test [7] was over 100 µM throughout. Besides, the TGI in test [8] and in test [9] was over 100 µM in each case.

As to `OCCSCC/C(=N\N=C(/CCSCCO)c1ccccc1)c1ccccc1`, the TGI in [2], in test [3], in [4], in test [5], in [6] and in test [7] was over 100 µM throughout. Moreover, the TGI in test [8] and in test [9] was over 100 µM each time.

In the case of `CC(=O)OCC1OC(n2c(=S)n(-c3ccccc3)c(=O)c3cc(Br)ccc32)C(OC(C)=O)C(OC(C)=O)C1OC(C)=O` (stereo unspecified), the TGI in test [1], in test [2], in test [3], in test [4], in test [5] and in test [6] was over 100 µM in each case. For the same compound, the TGI in test [7], in test [8] and in test [9] was over 100 µM each time.

On to `CC(C)(C)c1cc(-c2c3nc(c(-c4cc(C(C)(C)C)cc(C(C)(C)C)c4)c4ccc([nH]4)c(-c4cc(C(C)(C)C)cc(C(C)(C)C)c4)c4nc(c(-c5cc(C(C)(C)C)cc(C(C)(C)C)c5)c5ccc2[nH]5)C=C4)C=C3)cc(C(C)(C)C)c1`, for which the TGI in test [1], in test [2], in [3], in test [4], in test [5] and in test [6] was over 100 µM in each case. Besides, the TGI in test [7], in [8] and in [9] was over 100 µM throughout.

`Cc1ccccc1NC(=O)C(=O)CC(=O)C1CCOC1=O` (stereo unspecified): the TGI in test [1], in test [2], in [4], in test [5], in test [6] and in test [7] was over 100 µM throughout. Besides, the TGI in test [8] and in test [9] was over 100 µM each time.

On to `Cc1cc(S(=O)(=O)Nc2nc3ccccc3[nH]2)c(SCc2ccccc2)cc1Cl`, for which the GI50 in [1] was over 100 µM; in test [2], over 100 µM; in [3], 36.4 µM; in test [4], over 100 µM; in test [5] it was 36 µM; in test [6] it was 19.8 µM. The GI50 was over 100 µM in [7], 29.6 µM in test [8] and 28.4 µM in test [9]. Moreover, the TGI in test [1] was over 100 µM; in test [2] it was over 100 µM; in test [3], 85.6 µM; in test [4], over 100 µM; in test [5], over 100 µM; in [6], 52.8 µM. For the same compound, the TGI in test [7], in test [8] and in test [9] was over 100 µM in each case.

For the compound `COc1ccc(C(=O)C/C(=N/NC(N)=S)C(=O)Nc2ccccc2)cc1`, the TGI in [1], in test [2], in test [3], in test [4], in test [5] and in [6] was over 100 µM in each case. The TGI in test [7], in [8] and in test [9] was over 100 µM each time.

With `COC(=O)[C@@H]1[C@H](O)[C@H](C)[C@H](O)[C@H](C)/C=C\C=C(C)C(=O)Nc2c(C)c(OC(C)=O)c3c(c2O)C(=O)C(C)=C2OCOC(=C23)C(C)=C[C@@](C)(O)[C@H](O)[C@@H](C)[C@H]1OC(C)=O`, the TGI in test [2], in test [3], in [4], in test [5], in test [8] and in test [9] was over 100 µM in each case.

Consider `OCC#CCCCCOCC#Cc1ccccc1C#CCOCCCCC#CCO`, for which the GI50 in test [1] was 4.35 µM; in [2] it was 37.4 µM; in test [3], 14.8 µM; in test [4] it was 21.9 µM; in test [5], 28.9 µM; in test [6], 17.6 µM. Further, the GI50 is 27.1 µM in test [7], 22.3 µM in test [8] and 12.5 µM in test [9]. Moreover, the TGI is 34.3 µM in [1]; over 100 µM in [2]; over 100 µM in test [3]; 50.9 µM in test [4]; over 100 µM in test [5]; 33.2 µM in test [6]. In addition, the TGI in test [7] is over 100 µM; in test [8], 39 µM; in test [9], 27.3 µM.

With `Cc1cccc(C)c1NC(=O)CCCC(=O)C(C#N)c1ccc(Cl)cc1` (stereo unspecified), the TGI in [1], in test [2], in [3], in test [4], in [5] and in test [6] was over 100 µM in each case. The TGI in test [7], in test [8] and in test [9] was over 100 µM in each case.

Turning to `C[CH2][Ge]([CH2]C)([CH2]C)[O]C(=O)C([O][Ge]([CH2]C)([CH2]C)[CH2]C)c1ccccc1` (stereo unspecified), the GI50 in test [1] is 19.2 µM; in test [2], 25.8 µM; in test [3], 23.8 µM; in test [4], 18.9 µM; in test [5], 32.5 µM; in test [6], 17.1 µM. The GI50 in test [7] is 22.1 µM; in test [8], 18.2 µM; in [9], 12 µM. In addition, the TGI was 67.5 µM in test [1]; over 100 µM in test [2]; over 100 µM in test [3]; 42.2 µM in test [4]; 96.1 µM in test [5]; 40.5 µM in test [6]. Moreover, the TGI in test [7] is 55.7 µM; in test [8], 82.8 µM; in test [9], 24.5 µM.

Turning to `O=C1[C@@H]2C(c3ccncc3)=NO[C@@H]2C(=O)N1c1ccc(Cc2ccc(N3C(=O)[C@H]4C(c5ccncc5)=NO[C@H]4C3=O)cc2)cc1`, the TGI in test [1], in test [2], in test [3], in test [4], in test [6] and in test [7] was over 100 µM throughout. The TGI in test [8] and in test [9] was over 100 µM in each case.

Consider `CN(C)CCC(=O)N1CCc2c([nH]c3ccccc23)C1c1cccnc1` (stereo unspecified), for which the TGI in [1], in test [2], in test [3], in test [4], in test [5] and in test [6] was over 100 µM throughout. For the same compound, the TGI in test [8] and in [9] was over 100 µM in each case.

As to `O=[N+]([O-])c1ccc2nc3ccscc-3c2c1`, the TGI in [1] was 53.3 µM; in [2] it was over 100 µM; in [3] it was over 100 µM; in test [4], over 100 µM; in test [5], over 100 µM; in test [6] it was 50.4 µM. The results for the TGI in test [7] and in test [9] were 34.8 µM and 85.9 µM, respectively.

Regarding `NCCn1cnc2nc(NC(=O)c3ccccc3)[nH]c(=O)c21`, the TGI in test [1], in [2], in test [3], in [4], in [5] and in test [6] was over 100 µM in each case. Moreover, the TGI in test [7], in [8] and in test [9] was over 100 µM each time.

Consider `Cc1nnc2n1N=C(c1ccc(-c3ccc([N+](=O)[O-])cc3)o1)CS2`, for which the TGI in [2], in test [3], in [4], in test [5], in test [6] and in test [7] was over 100 µM each time. Moreover, the TGI in test [8] and in [9] was over 100 µM in each case.

Take `C=C[Si](C)(C)COC(=O)/C(C#N)=C/C=C/c1ccccc1`: the TGI in [2], in test [3], in test [4], in [5], in test [6] and in test [7] was over 100 µM in each case. In [8], this compound registered a TGI of over 100 µM.

For the compound `CCOC(=O)C1=C(c2ccccc2)NC(c2ccccc2)=C(C(=O)OCC)c2c1c(=O)cc[nH]c2=O`, the TGI in [2], in test [3], in test [4], in test [5], in test [6] and in test [7] was over 100 µM in each case. For the same compound, the TGI in test [8] and in test [9] was over 100 µM throughout.

Take `CCOC(=O)C1=C(C)N(NC(=O)OC)C2(N)N(NC(=O)OC)C(C)=C(C(=O)OCC)C12C#N` (stereo unspecified): the TGI in test [1], in [2], in [3], in test [4], in [5] and in test [6] was over 100 µM in each case. The TGI in test [8] and in test [9] was over 100 µM throughout.
